Experimental data as given in patent US8778952B2, “Method of reducing intraosseous hypertension” (priority 2007, dated 2014).

System: patient with severe arthritis in their knee
Experiment: Case observation: MRI and reported pain of a patient's arthritic knee before and after routine use of a phosphodiesterase inhibitor
Format: in vivo, human
Details: one patient, 50 mg of sildenafil, once per day
Text: A physician, who is also the inventor of the present invention, performed an arthroscopic surgical procedure on a patient suffering from a loose cartilage body in the setting of severe arthritis in their knee. The patient was a competitive senior tennis player and declined knee replacement for that reason. The purpose of the procedure was merely to remove a loose body and abate the mechanical symptoms it caused. Approximately one year later, the patient returned to their physician for evaluation of what was believed to be an unrelated ganglion cyst on the same knee. […] Upon questioning by their physician, the patient explained that the only difference in their medical history (including lifestyle, activity, new illness and medications) between the time of the first and second MRIs was that they started using a phosphodiesterase inhibitor. Specifically, the patient started using Viagra® (50 mg of sildenafil, once per day). There were no other changes in the interval medical history.

CCCc1nn(C)c2c(=O)[nH]c(-c3cc(S(=O)(=O)N4CCN(C)CC4)ccc3OCC)nc12 [Viagra®, sildenafil]
intraosseous hypertension / bone edema on coronal MRI of knee (white spots on tibial spines) (FIG. 2 MRI compared with FIG. 1 MRI approximately one year earlier): dissipation of the intraosseous hypertension
knee pain from arthritis (reported by patient) (few months prior to second MRI, approximately one year after first MRI): reduction in knee pain
